From patent US12252524B2, “GIP/GLP1 co-agonist compounds” (Eli Lilly and Company, priority 2018, dated 2025) come the findings set out here.

The target in test [1] is human GLP-1 receptor (GLP-1R) (Homo sapiens, UniProt P43220). The test can be described thus: cAMP pharmacological functional assay in presence of casein, hGLP-1R. Format: cell-based.
The target of test [2] is T1, gastric inhibitory peptide receptor (GIPR) (Homo sapiens, UniProt P48546).
T1 sequence (P48546 22-466): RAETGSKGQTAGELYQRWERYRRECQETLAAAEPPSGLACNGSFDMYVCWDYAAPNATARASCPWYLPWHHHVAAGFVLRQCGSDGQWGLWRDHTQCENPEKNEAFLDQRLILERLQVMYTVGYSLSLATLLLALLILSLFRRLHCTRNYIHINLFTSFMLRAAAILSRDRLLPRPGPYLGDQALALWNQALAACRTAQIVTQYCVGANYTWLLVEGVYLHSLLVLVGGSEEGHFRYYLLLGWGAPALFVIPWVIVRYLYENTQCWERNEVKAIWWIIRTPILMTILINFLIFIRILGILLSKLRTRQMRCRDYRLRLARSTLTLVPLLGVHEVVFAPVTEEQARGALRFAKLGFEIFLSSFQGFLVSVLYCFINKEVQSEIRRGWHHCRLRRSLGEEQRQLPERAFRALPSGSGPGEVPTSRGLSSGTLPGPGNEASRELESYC
The test can be described thus: cAMP pharmacological functional assay in presence of casein, hGIPR. The format is cell-based.

Test [3] has as its target T2, human GLP-1R (Homo sapiens, UniProt P43220). The test can be described thus: GLP-1R CHO cell β-arrestin recruitment assay. As to conditions: for hGLP1R B-Arrestin2 % Top: normalized to GLP-1 maximum control. The format is cell-based. On the set-up: host or cells: CHO-K1 PathHunter cells, assay-ready frozen. The method, boiled down: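 PathHunter CHO-K1 cells with ProLink-tagged human GLP-1R and enzyme-acceptor-tagged β-arrestin-2 treated with serially diluted peptides in assay buffer containing 0.1% hydrolyzed casein, 90 min at 37 °C.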
In general terms: Arrestin recruitment assays detect the binding of arrestin to an activated receptor.

Test [4] addresses T2, human GLP-1R. The test can be described thus: GLP-1R HEK293 cell membrane [35S]GTPγS binding assay. The format is biochemical. More on the design: expressed in transfected cells; host or cells: HEK293 cells expressing human GLP-1R; membranes. The gist of the method: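 Membranes from HEK293 cells expressing the receptor incubated with peptide and […] [35S]GTPγS in HEPES pH 7.4 buffer with NaCl, MgCl2, saponin and BSA, 30 min at room temperature. Gαs-bound label captured by anti-Gαs antibody/SPA beads and counted; EC50 from four-parameter logistic fit.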
(In general: GTPγS resists hydrolysis and so accumulates on activated G proteins.)

Setting [5] is: HEK293 cells expressing hGLP-1R, 0.1% Casein, geometric mean, read-out: hGLP1R cAMP Rel EC50 nM (SEM, n).
The mark [6] stands for this setting: HEK293 cells expressing hGIPR, 0.1% Casein, geometric mean, read-out: hGIPR cAMP Rel EC50 nM (SEM, n).
Where [7] appears, read: CHO-K1 cells, PathHunter β-arrestin-2 recruitment, 0.1% casein, read-out: hGLP1R B-Arrestin2 Rel EC50 uM (SEM, n).
[8] abbreviates: HEK293 cell membranes expressing human GLP-1R, [35S]GTPγS binding, read-out: hGLP1R GTPgS Rel EC50 nM (SEM, n).

Like-named read-outs stand apart in the source and are kept apart here. Numbered stars: 1 amine (or outer) side, 2 acyl side, 3 side chain; on linkers, the order of the positions; unused ones are H or OH. Square brackets hold non-standard residues; d marks the D form. Side chains are listed from the residue outwards. Peptide text beside a SMILES is read from it. * marks the point of attachment. C20 diacid = O=C(O)CCCCCCCCCCCCCCCCCCC(=O)*; γGlu = O=C(O)[C@H](CCC(=O)[*:2])N[*:1]; αMeY = C[C@](N)(Cc1ccc(O)cc1)C(=O)O; αMeF = C[C@](N)(Cc1ccccc1)C(=O)O; αMeL = CC(C)C[C@](C)(N)C(=O)O; Dab = NCC[C@H](N)C(=O)O; Dap = NC[C@H](N)C(=O)O; AEEA = NCCOCCOCC(=O)O; Aib = CC(C)(N)C(=O)O

T2 sequence (P43220 24-463): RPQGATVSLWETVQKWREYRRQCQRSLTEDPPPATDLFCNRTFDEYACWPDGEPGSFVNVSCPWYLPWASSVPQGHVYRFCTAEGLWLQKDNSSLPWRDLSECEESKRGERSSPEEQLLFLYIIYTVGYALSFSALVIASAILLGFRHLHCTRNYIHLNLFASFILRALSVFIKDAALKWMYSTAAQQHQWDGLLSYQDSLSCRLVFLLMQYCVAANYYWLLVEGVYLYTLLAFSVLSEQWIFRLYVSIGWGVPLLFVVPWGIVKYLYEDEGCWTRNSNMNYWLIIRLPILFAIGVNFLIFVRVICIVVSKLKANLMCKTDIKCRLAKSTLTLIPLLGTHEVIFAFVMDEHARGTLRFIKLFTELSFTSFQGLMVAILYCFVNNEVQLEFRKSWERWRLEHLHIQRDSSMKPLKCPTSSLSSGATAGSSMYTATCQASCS
Sequence of human GLP-1 receptor (GLP-1R) (P43220 24-463): as above

In the case of `CC[C@H](C)[C@H](NC(=O)[C@H](CC(C)C)NC(=O)[C@H](Cc1ccc(O)cc1)NC(=O)[C@H](CCC(=O)O)NC(=O)[C@@H](NC(=O)[C@H](Cc1ccccc1)NC(=O)[C@H](CCC(=O)O)NC(=O)C(C)(C)NC(=O)[C@H](CCC(N)=O)NC(=O)[C@H](C)NC(=O)[C@H](CCCCNC(=O)COCCOCCNC(=O)COCCOCCNC(=O)CC[C@H](NC(=O)CCCCCCCCCCCCCCCCCCC(=O)O)C(=O)O)NC(=O)[C@H](CCCCN)NC(=O)[C@H](CC(=O)O)NC(=O)[C@H](CC(C)C)NC(=O)[C@](C)(CC(C)C)NC(=O)[C@@H](NC(=O)[C@H](CO)NC(=O)[C@H](Cc1ccc(O)cc1)NC(=O)[C@H](CC(=O)O)NC(=O)[C@H](CO)NC(=O)[C@@H](NC(=O)[C@](C)(Cc1ccccc1)NC(=O)[C@@H](NC(=O)CNC(=O)[C@H](CCC(=O)O)NC(=O)C(C)(C)NC(=O)[C@H](N)Cc1ccc(O)cc1)[C@@H](C)O)[C@@H](C)O)[C@@H](C)CC)[C@@H](C)CC)C(=O)N[C@@H](C)C(=O)NCC(=O)NCC(=O)N1CCC[C@H]1C(=O)N[C@@H](CO)C(=O)N[C@@H](CO)C(=O)NCC(=O)N[C@@H](C)C(=O)N1CCC[C@H]1C(=O)N1CCC[C@H]1C(=O)N1CCC[C@H]1C(=O)N[C@@H](CO)C(N)=O` [Example 345] (H-[dY][Aib]EGT[αMeF]TSDYSI[αMeL]LDKK([AEEA-AEEA-γGlu-C20 diacid])AQ[Aib]EFIEYLIAGGPSSGAPPPS-NH2), the EC50 in test [1] came to 0.035 nM; in test [2], 0.0649 nM; at human GLP-1R [3], 0.00308 µM; at human GLP-1R [4], 0.684 nM. Further, the “hGLP1R B-Arrestin2 % Top” value on human GLP-1R [3] stood at 74.7%.

Turning to `CC[C@H](C)[C@H](NC(=O)[C@H](CC(C)C)NC(=O)[C@H](Cc1ccc(O)cc1)NC(=O)[C@H](CCC(=O)O)NC(=O)[C@@H](NC(=O)[C@H](Cc1ccccc1)NC(=O)[C@H](C)NC(=O)C(C)(C)NC(=O)[C@H](CCC(N)=O)NC(=O)[C@H](C)NC(=O)[C@H](CCCCNC(=O)COCCOCCNC(=O)COCCOCCNC(=O)CC[C@H](NC(=O)CCCCCCCCCCCCCCCCCCC(=O)O)C(=O)O)NC(=O)[C@H](CCN)NC(=O)[C@H](CC(=O)O)NC(=O)[C@H](CC(C)C)NC(=O)[C@](C)(CC(C)C)NC(=O)[C@@H](NC(=O)[C@H](CO)NC(=O)[C@H](Cc1ccc(O)cc1)NC(=O)[C@H](CC(=O)O)NC(=O)[C@H](CO)NC(=O)[C@@H](NC(=O)[C@H](Cc1ccccc1)NC(=O)[C@@H](NC(=O)CNC(=O)[C@H](CCC(=O)O)NC(=O)C(C)(C)NC(=O)[C@H](N)Cc1ccc(O)cc1)[C@@H](C)O)[C@@H](C)O)[C@@H](C)CC)[C@@H](C)CC)C(=O)N[C@@H](C)C(=O)NCC(=O)NCC(=O)N1CCC[C@H]1C(=O)N[C@@H](CO)C(=O)N[C@@H](CO)C(=O)NCC(=O)N[C@@H](C)C(=O)N1CCC[C@H]1C(=O)N1CCC[C@H]1C(=O)N1CCC[C@H]1C(=O)N[C@@H](CO)C(N)=O` [Example 347] (H-[dY][Aib]EGTFTSDYSI[αMeL]LD[Dab]K([AEEA-AEEA-γGlu-C20 diacid])AQ[Aib]AFIEYLIAGGPSSGAPPPS-NH2), the concentration for a half-maximal effect (EC50) in test [1] (setting [5]) stood at 0.102 nM; in test [2] (setting [6]), 0.0827 nM; on human GLP-1R [3] (setting [7]), 0.00542 µM; at human GLP-1R [4] (setting [8]), 0.759 nM. For the same molecule, the “hGLP1R B-Arrestin2 % Top” value at human GLP-1R [3] is given as 24.6%.

Consider `CC[C@H](C)[C@H](NC(=O)[C@H](CC(C)C)NC(=O)[C@H](Cc1ccc(O)cc1)NC(=O)[C@H](CCC(=O)O)NC(=O)[C@@H](NC(=O)[C@H](Cc1ccccc1)NC(=O)[C@H](C)NC(=O)C(C)(C)NC(=O)[C@H](CCC(N)=O)NC(=O)[C@H](C)NC(=O)[C@H](CCCCNC(=O)COCCOCCNC(=O)COCCOCCNC(=O)CC[C@H](NC(=O)CCCCCCCCCCCCCCCCCCC(=O)O)C(=O)O)NC(=O)[C@H](CN)NC(=O)[C@H](CC(=O)O)NC(=O)[C@H](CC(C)C)NC(=O)[C@](C)(CC(C)C)NC(=O)[C@@H](NC(=O)[C@H](CO)NC(=O)[C@H](Cc1ccc(O)cc1)NC(=O)[C@H](CC(=O)O)NC(=O)[C@H](CO)NC(=O)[C@@H](NC(=O)[C@H](Cc1ccccc1)NC(=O)[C@@H](NC(=O)CNC(=O)[C@H](CCC(=O)O)NC(=O)C(C)(C)NC(=O)[C@H](N)Cc1ccc(O)cc1)[C@@H](C)O)[C@@H](C)O)[C@@H](C)CC)[C@@H](C)CC)C(=O)N[C@@H](C)C(=O)NCC(=O)NCC(=O)N1CCC[C@H]1C(=O)N[C@@H](CO)C(=O)N[C@@H](CO)C(=O)NCC(=O)N[C@@H](C)C(=O)N1CCC[C@H]1C(=O)N1CCC[C@H]1C(=O)N1CCC[C@H]1C(=O)N[C@@H](CO)C(N)=O` [Example 348] (H-[dY][Aib]EGTFTSDYSI[αMeL]LD[Dap]K([AEEA-AEEA-γGlu-C20 diacid])AQ[Aib]AFIEYLIAGGPSSGAPPPS-NH2), for which the concentration giving a half-maximal response (EC50) came to 0.113 nM in test [1] (setting [5]), 0.193 nM in test [2] (setting [6]), 0.00346 µM at human GLP-1R [3] (setting [7]) and 0.66 nM at human GLP-1R [4] (setting [8]). Further, on human GLP-1R [3], the “hGLP1R B-Arrestin2 % Top” value is listed as 19.8%.

Turning to `CC[C@H](C)[C@H](NC(=O)[C@H](CC(C)C)NC(=O)[C@H](Cc1ccc(O)cc1)NC(=O)[C@H](CCC(=O)O)NC(=O)[C@@H](NC(=O)[C@H](Cc1ccccc1)NC(=O)[C@H](CCC(=O)O)NC(=O)C(C)(C)NC(=O)[C@H](CCC(N)=O)NC(=O)[C@H](C)NC(=O)[C@H](CCCCNC(=O)COCCOCCNC(=O)COCCOCCNC(=O)CC[C@H](NC(=O)CCCCCCCCCCCCCCCCCCC(=O)O)C(=O)O)NC(=O)[C@H](CCN)NC(=O)[C@H](CC(=O)O)NC(=O)[C@H](CC(C)C)NC(=O)[C@](C)(CC(C)C)NC(=O)[C@@H](NC(=O)[C@H](CO)NC(=O)[C@H](Cc1ccc(O)cc1)NC(=O)[C@H](CC(=O)O)NC(=O)[C@H](CO)NC(=O)[C@@H](NC(=O)[C@H](Cc1ccccc1)NC(=O)[C@@H](NC(=O)CNC(=O)[C@H](CCC(=O)O)NC(=O)C(C)(C)NC(=O)[C@H](N)Cc1ccc(O)cc1)[C@@H](C)O)[C@@H](C)O)[C@@H](C)CC)[C@@H](C)CC)C(=O)N[C@@H](C)C(=O)NCC(=O)NCC(=O)N1CCC[C@H]1C(=O)N[C@@H](CO)C(=O)N[C@@H](CO)C(=O)NCC(=O)N[C@@H](C)C(=O)N1CCC[C@H]1C(=O)N1CCC[C@H]1C(=O)N1CCC[C@H]1C(=O)N[C@@H](CO)C(N)=O` [Example 350] (H-[dY][Aib]EGTFTSDYSI[αMeL]LD[Dab]K([AEEA-AEEA-γGlu-C20 diacid])AQ[Aib]EFIEYLIAGGPSSGAPPPS-NH2), the EC50 in test [1] (setting [5]) is 0.107 nM; in test [2] (setting [6]), 0.189 nM; on human GLP-1R [3] (setting [7]), 0.0108 µM; on human GLP-1R [4] (setting [8]), 0.589 nM. At human GLP-1R [3], the “hGLP1R B-Arrestin2 % Top” value is reported as 21.8%.

As for `CC[C@H](C)[C@H](NC(=O)[C@H](CC(C)C)NC(=O)[C@](C)(Cc1ccc(O)cc1)NC(=O)[C@H](CCC(=O)O)NC(=O)[C@@H](NC(=O)[C@H](Cc1ccccc1)NC(=O)[C@H](C)NC(=O)C(C)(C)NC(=O)[C@H](CCC(N)=O)NC(=O)[C@H](C)NC(=O)[C@H](CCCCNC(=O)COCCOCCNC(=O)COCCOCCNC(=O)CC[C@H](NC(=O)CCCCCCCCCCCCCCCCCCC(=O)O)C(=O)O)NC(=O)[C@H](CCC(=O)O)NC(=O)[C@H](CC(=O)O)NC(=O)[C@H](CC(C)C)NC(=O)[C@](C)(CC(C)C)NC(=O)[C@@H](NC(=O)[C@H](CO)NC(=O)[C@H](Cc1ccc(O)cc1)NC(=O)[C@H](CC(=O)O)NC(=O)[C@H](CO)NC(=O)[C@@H](NC(=O)[C@H](Cc1ccccc1)NC(=O)[C@@H](NC(=O)CNC(=O)[C@H](CCC(=O)O)NC(=O)C(C)(C)NC(=O)[C@H](N)Cc1ccc(O)cc1)[C@@H](C)O)[C@@H](C)O)[C@@H](C)CC)[C@@H](C)CC)C(=O)N[C@@H](C)C(=O)NCC(=O)NCC(=O)N1CCC[C@H]1C(=O)N[C@@H](CO)C(=O)N[C@@H](CO)C(=O)NCC(=O)N[C@@H](C)C(=O)N1CCC[C@H]1C(=O)N1CCC[C@H]1C(=O)N1CCC[C@H]1C(=O)N[C@@H](CO)C(N)=O` [Example 381] (H-[dY][Aib]EGTFTSDYSI[αMeL]LDEK([AEEA-AEEA-γGlu-C20 diacid])AQ[Aib]AFIE[αMeY]LIAGGPSSGAPPPS-NH2), the EC50 at human GLP-1R [3] (setting [7]) is 0.0155 µM; on human GLP-1R [4] (setting [8]) it was 0.273 nM. Besides, the “hGLP1R B-Arrestin2 % Top” value on human GLP-1R [3] turned out to be 25.8%.

As a reminder, the EC50 is the concentration needed to bring the measured effect to its halfway point.
